Measured values as given in paper PMC11611271, “Rapid prediction of key residues for foldability by machine learning model enables the design of highly functional libraries with hyperstable constrained peptide scaffolds” (PLOS Computational Biology, 2024).
Where a SMILES comes first, the peptide text is derived from it. Bridges are numbered along the chain shown (N, C = ends). Where no end group is shown, it is not given here.

What was measured:
human full-length HtrA1 = molecular target: T1, human full-length HtrA1 (Homo sapiens, UniProt Q92743); test: HtrA1 enzymatic assay; assay type: biochemical
T1 construct: we used human full-length HtrA1 (HtrA1), which was expressed in Trichoplusia ni cells; made in house; host or cells: Trichoplusia ni cells
T1 sequence (Q92743 23-480): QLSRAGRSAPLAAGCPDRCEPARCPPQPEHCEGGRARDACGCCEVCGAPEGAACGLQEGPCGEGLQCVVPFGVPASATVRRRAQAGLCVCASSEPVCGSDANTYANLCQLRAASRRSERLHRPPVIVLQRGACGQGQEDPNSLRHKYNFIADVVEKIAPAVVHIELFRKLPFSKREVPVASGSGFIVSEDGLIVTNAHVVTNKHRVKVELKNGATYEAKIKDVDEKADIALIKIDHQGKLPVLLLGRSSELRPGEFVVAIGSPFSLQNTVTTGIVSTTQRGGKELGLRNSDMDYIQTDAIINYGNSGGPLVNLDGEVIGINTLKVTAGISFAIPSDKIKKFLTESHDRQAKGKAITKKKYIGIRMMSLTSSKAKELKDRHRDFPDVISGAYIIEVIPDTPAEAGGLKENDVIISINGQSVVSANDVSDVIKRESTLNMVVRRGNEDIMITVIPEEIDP
Procedure: For enzymatic assays we used human full-length HtrA1 (HtrA1), which was expressed in Trichoplusia ni cells and purified as described. Enzyme assays with the fluorescence-quenched synthetic substrate Mca-[…](Dnp)KK (H2-OPT) were carried out essentially as described. […] A 10 mM stock solution of H2-OPT in DMSO was diluted with water, prewarmed at 37°C and then added to the HCP-enzyme mixtures. The final concentrations in the reaction mixtures were: 1 nM HtrA1, 5 μM H2-OPT, 0.1% DMSO and varied concentrations of HCP. Substrate cleavage was measured at 37°C on a SPECTRAmax M5 microplate reader (Molecular Devices) and the initial rates of cleavage determined. The IC50 values were determined by fitting the data to the 4 parameter sigmoid function.

HtrA1 = test: phage spot ELISA on HtrA1; assay type: binding; conditions: Fig 9A; for ELISA s/n: Spot ELISA signal/noise; for ELISA signal: Spot ELISA
Source text: To determine the performance of the libraries for ligand discovery we chose a panel of eight protein targets, which have no structural homology and a wide mass range (Fig 7C). We screened these eight targets with solution panning strategy and two additional plate panning for CD8α/β and CD28, thus ten panning campaigns in total. We consider clones showing spot phage ELISA signal > 0.3 and signal/noise ratio > 2 as positive hits. […] We also obtained the NGS data for these screening and the ranking of clones for their enrichment along the rounds of screening was analyzed and considered the top-ranking clones as potential hits. Based on their sequence diversity we selected 16 potential hits spanning five protein targets for peptide synthesis in their linear form. Seven of these are hits with positive phage ELISA signal and nine were selected based on NGS ranking without spot ELISA available. Subsequently, we conducted in vitro folding experiments on these peptides in various buffers.
(§1) The 5ji4 libraries were constructed following the Kunkel mutagenesis method and the solution panning protocol was followed as previously described. After four to five rounds of binding selection, while eluted pool was subjected to NGS analysis, individual phage clones were also picked and analyzed with phage spot ELISA. Positive clones were subjected to SANGER sequencing.
Among these five hits, A7, which is the SANGER hit, was picked for affinity maturation. Following the same strategy, one soft- and one hard-randomization library was designed targeting the 5JI4 variable regions 1 and 2, respectively. Two libraries were each panned as previously described. Both phage spot ELISA coupled with SANGER sequencing and NGS analysis were applied after affinity maturation.

CD8α/β = test: phage spot ELISA on CD8α/β; assay type: binding; conditions: for S/N: phage spot ELISA signal/noise; for ELISA: phage spot ELISA signal
Source text: (§2) To determine the performance of the libraries for ligand discovery we chose a panel of eight protein targets, which have no structural homology and a wide mass range (Fig 7C). We screened these eight targets with solution panning strategy and two additional plate panning for CD8α/β and CD28, thus ten panning campaigns in total. We consider clones showing spot phage ELISA signal > 0.3 and signal/noise ratio > 2 as positive hits. At least one binding hit was discovered for nine out of the ten panning campaigns, surpassing the success rate of the best DCP scaffolds reported previously. We also obtained the NGS data for these screening and the ranking of clones for their enrichment along the rounds of screening was analyzed and considered the top-ranking clones as potential hits. Based on their sequence diversity we selected 16 potential hits spanning five protein targets for peptide synthesis in their linear form. Seven of these are hits with positive phage ELISA signal and nine were selected based on NGS ranking without spot ELISA available. Subsequently, we conducted in vitro folding experiments on these peptides in various buffers. We observed a strong propensity for spontaneous folding regardless of the buffer condition. All HCP hits tested successfully folded into three-disulfide-containing product within two days in a universal buffer system (PBS, pH 7.4, 50% DMSO) without the need for a redox pair, as shown in Fig 8A. The binding of these folded peptides to their respective target proteins was confirmed using SPR (Table 4 and S1 Data) and binding kinetics are exemplified by the high-affinity peptide 5ji4-CRD7-2 (see Fig 8B). Among seven selected ELISA-positive hits, all of them were successfully synthesized and in vitro folded with three disulfide bonds and five were proven to be validated binders by SPR (Table 4). Nine peptides selected from the NGS ranking were synthesized and folded with the expected number of disulfide bonds and five of them bound to their target with affinities in the μM range as determined by SPR (Table 4). In general, binding affinities for these SPR-validated initial hits are weak, with Kd values in the micromolar range and fast on- and off-rates. There are two exceptions with binding affinities in the nanomolar range.
as §1

RSP02 = test: phage spot ELISA on RSP02; assay type: binding; conditions: S3 Table sheet RSP02; for S/N: phage spot ELISA signal/noise; for ELISA: phage spot ELISA signal
Source text: as §2, §1

CD8α-Fc [1] = molecular target: T2, CD8α-Fc (UniProt P01732 22-182); test: SPR; Biacore S200, Fc-fusion target on Sensor Chip Protein A, peptide flowed, single-cycle kinetics, three-fold dilution series from approximately 100 μM, 25°C, 30 μl/min, HBS-EP with 5% DMSO; steady-state equilibrium model; conditions: both partners purified
T2 construct: CD8 alpha chain, bought as Fc fusion; captured on a Protein A sensor chip by its Fc; source: bought: R&D, #AVI10927
T2 sequence (P01732 22-182): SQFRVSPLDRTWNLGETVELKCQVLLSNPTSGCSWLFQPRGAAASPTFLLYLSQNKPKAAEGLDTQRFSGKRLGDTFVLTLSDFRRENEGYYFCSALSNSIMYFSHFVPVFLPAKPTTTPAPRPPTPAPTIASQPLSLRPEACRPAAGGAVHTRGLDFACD

CD8α-Fc [2] = molecular target: T2, CD8α-Fc; test: SPR; Biacore S200, Fc-fusion target on Sensor Chip Protein A, peptide flowed, single-cycle kinetics, three-fold dilution series from approximately 100 μM, 25°C, 30 μl/min, HBS-EP with 5% DMSO; 1:1 binding (kinetic) model, or no binding seen; conditions: both partners purified
VEGF_(8-109) [3] = molecular target: VEGF_(8-109) (UniProt P15692); test: ELISA; phage spot ELISA of individual phage clones after panning; clones with signal > 0.3 and signal/noise ratio > 2 counted as positive hits
VEGF_(8-109) [4] = molecular target: VEGF_(8-109) (UniProt P15692); test: SPR; Biacore S200, target on Series S Sensor Chip SA, peptide flowed, single-cycle kinetics, three-fold dilution series from approximately 100 μM, 25°C, 30 μl/min, HBS-EP with 5% DMSO; 1:1 binding (kinetic) model
[5] = S3 Table sheet CD8αβ-1 (panning campaign 1)
[6] = S3 Table sheet CD8αβ-2 (panning campaign 2)

Molecule: CC[C@H](C)[C@@H]1NC(=O)[C@H]([C@@H](C)O)NC(=O)[C@@H]2CSSC[C@H](NC(=O)[C@H](CCC(=O)O)NC(=O)[C@H](C)NC(=O)[C@H](CO)NC(=O)[C@H](CO)NC(=O)[C@H]([C@@H](C)O)NC(=O)[C@H](CC(C)C)NC(=O)[C@H](Cc3ccccc3)NC(=O)[C@H](Cc3c[nH]cn3)NC(=O)[C@H](Cc3c[nH]c4ccccc34)NC(=O)CNC(=O)[C@H](CCCNC(=N)N)NC(=O)[C@H](CC(C)C)NC1=O)C(=O)N[C@@H](CCC(=O)O)C(=O)N[C@@H](CCCNC(=N)N)C(=O)N[C@@H](CC(C)C)C(=O)N[C@H]1CSSC[C@H](NC(=O)[C@H]([C@@H](C)O)NC(=O)[C@H](CCCNC(=N)N)NC(=O)[C@H](CC(C)C)NC(=O)CNC(=O)[C@H](CC(C)C)NC(=O)[C@H](CCCNC(=N)N)NC(=O)[C@H](CC(=O)O)NC1=O)C(=O)N[C@@H](CCCNC(=N)N)C(=O)N[C@@H](C(C)C)C(=O)N[C@@H](Cc1c[nH]cn1)C(=O)N[C@H](C(=O)NCC(=O)O)CSSC[C@H](NC(=O)[C@@H]1CCCN1)C(=O)N[C@@H](CCC(=O)O)C(=O)N2 [5ji4_A7] (H-PCECTILRGWHFLTSSAECERLCDRLGLRTCRVHCG-OH; disulfide 2-35, 4-19, 23-31)
- inhibition of HtrA1 activity (human full-length HtrA1; maximal inhibition in the concentration-response): complete inhibition
- ELISA s/n (HtrA1): 5.8
- ELISA signal (HtrA1): 3.36

Molecule: PCECDVHGETYTVSSSEEGTSVPTWLISLCRVHCG [CD8αβ-1 clone 2, phage clone, 5JI4 library, CD8αβ-1 panning]
- S/N (CD8α/β; [5]): 34.8
- ELISA (CD8α/β; [5]): 3.031

Molecule: PCECDVNGETYTVSSSEECERLCRKLGVTNCRVHCG (also: bicyclic or more (positions not given here)) [5ji4, reference compound]
- IC50 (human full-length HtrA1; 1 nM HtrA1, 5 μM H2-OPT substrate, 0.1% DMSO, 15 min pre-incubation, 37°C, pH 8.0, 4 parameter fit): not inhibitory
- ELISA s/n (HtrA1): 1.4
- ELISA signal (HtrA1): 0.83

Molecule: PCECDYPVYHDDYKSSEECERLCRKLGVTNCRVHCG [CD8αβ-2 clone 1, phage clone, 5JI4 library, CD8αβ-2 panning]
- S/N (CD8α/β; [6]): 27.2
- ELISA (CD8α/β; [6]): 3.534

Molecule: PCECGPYHDDMDKTSSEECERLCRKLGVTNCRVHCG [CD8αβ-2 clone 2, phage clone, 5JI4 library, CD8αβ-2 panning]
- S/N (CD8α/β; [6]): 2.4
- ELISA (CD8α/β; [6]): 0.296

Molecule: PCECLMIAVMLVRPSSEECERLCRKLGVTNCRVHCG [CD8αβ-2 clone 3, phage clone, 5JI4 library, CD8αβ-2 panning]
- S/N (CD8α/β; [6]): 1.6
- ELISA (CD8α/β; [6]): 0.223

Molecule: PCECTYKDDWQKGASSEECERLCRKLGVTNCRVHCG [RSP02 clone 1, phage clone, 5JI4 library, RSP02 panning]
- S/N (RSP02): 1.427
- ELISA (RSP02): 0.204

Molecule: PCECVRLSTGRYVKSSEECERLCRKLGVTNCRVHCG [RSP02 clone 5, phage clone, 5JI4 library, RSP02 panning]
- S/N (RSP02): 1.706
- ELISA (RSP02): 0.216

Molecule: PSECPNPPFEVRTWSSEECERLCRKLGVTNCVCG [CD8αβ-1 clone 1, phage clone, 5JI4 library, CD8αβ-1 panning]
- S/N (CD8α/β; [5]): 18.5
- ELISA (CD8α/β; [5]): 1.938

B1: 5ji4-CD8-20 (peptide)
chain: PCECDVNGETYTVSSSEECERLCVWWLSTVCRVPCG
notes: clone from the 5JI4 scaffold phage libraries, picked by NGS ranking; free N- and C-termini; three disulfide bonds; source: synthetic peptide (CSBio), folded in vitro, HPLC purified
- Kd (CD8α-Fc [1]): 23 ± 7 µM

B2: 5ji4-CD8-22 (peptide)
chain: PCECLVTPYKDDYKSSEECERLCVWWLSTVCRVPCG
notes: as for B1
- Kd (CD8α-Fc [1]): 76.3 ± 35.7 µM

B3: 5ji4-CD8-21 (peptide)
chain: PCECVWESFAHLPWSSEECERLCLNWLSSLCRVHCG
notes: as for B1
- Kd (CD8α-Fc [2]): 6 ± 2.2 µM

Molecule: PCECDVNVETYTVSSSEECKRLCWGFGQSDCRVHCG [5ji4-VEGF-3 displayed on M13 phage]
- phage spot ELISA signal (VEGF_(8-109) [3]): 3.07
- phage spot ELISA signal/noise (s/n) (VEGF_(8-109) [3]): 32.2

Molecule: PCECDVNVETYTVSSSEECKRLCWGFGQSDCRVHCG [5ji4-VEGF-3]
- Kd (VEGF_(8-109) [4]): 0.12 µM

B4: 5ji4-CD8-2 (peptide)
chain: H-PCECVWESFAHLPWSSEECERLCRKLGVTNCVCG-OH
modifications: disulfide (positions not given here); also: three disulfide bonds, pairing not given here
- Kd (CD8α-Fc [2]): 4.2 ± 4.3 µM

Molecule: PCECFMYDILVGLASSEECERLCRKLGVTNCRVHCG [5ji4-VEGF-2 displayed on M13 phage]
- phage spot ELISA signal (VEGF_(8-109) [3]): 4.71
- phage spot ELISA signal/noise (s/n) (VEGF_(8-109) [3]): 44.5

Molecule: PCECFMYDILVGLASSEECERLCRKLGVTNCRVHCG [5ji4-VEGF-2]
- Kd (VEGF_(8-109) [4]): 6.8 µM
